Literature values, collected in publication PMC8113538, “Acute toxicity analysis of an inhibitor of BCL2, Disarib, in rats” (Scientific Reports, 2021).
Read-outs that look alike come from different tables or passages of the source.

How the values were obtained:
[1] = cited from earlier work; for solubility in organic solvents: DMSO and Dimethylformamide
[2] = cited from earlier work
[3] = design: method as in EMA Venclyxto public assessment report, 16; conditions: dogs; ref EMA Venclyxto public assessment report, 16; cited from earlier work
platelets = system: platelets; design: method as in PMID 26589495; conditions: clinical trials; cited from earlier work
[4] = design: method as in EMA Venclyxto public assessment report, 16; conditions: monkey; ref EMA Venclyxto public assessment report, 16; cited from earlier work
circulating platelets = system: circulating platelets; design: method as in PMID 26589495, PMID 21094089, PMID 17205078; conditions: preclinical studies; cited from earlier work
[5] = rats; cited from earlier work

CC1(C)CCC(CN2CCN(c3ccc(C(=O)NS(=O)(=O)c4ccc(NCC5CCOCC5)c([N+](=O)[O-])c4)c(Oc4cnc5[nH]ccc5c4)c3)CC2)=C(c2ccc(Cl)cc2)C1 [ABT199]
solubility in organic solvents [1]: showed solubility in organic solvents such as DMSO and Dimethylformamide
solubility in absolute ethanol [1]: soluble in absolute ethanol
solubility in aqueous buffers [1]: minimal
oral bioavailability (in words) [2]: orally bioavailable
half life [3]: 12 h
toxic effect on platelets (platelets): no toxic effect on platelets
half life [4]: 2.2 h

CC1(C)CCC(c2ccc(Cl)cc2)=C(CN2CCN(c3ccc(C(=O)NS(=O)(=O)c4ccc(N[C@H](CCN5CCOCC5)CSc5ccccc5)c(S(=O)(=O)C(F)(F)F)c4)cc3)CC2)C1 [ABT263]
solubility in organic solvents [1]: showed solubility in organic solvents such as DMSO and Dimethylformamide
solubility in absolute ethanol [1]: soluble in absolute ethanol
solubility in aqueous buffers [1]: minimal
number of circulating platelets (circulating platelets): rapid and concentration-dependent decrease in the number of circulating platelets
oral bioavailability (in words) [2]: orally bioavailable
plasma clearance [2]: low plasma clearance value
bioavailability [5]: ~ 20%

CN(C)CC[C@H](CSc1ccccc1)Nc1ccc(S(=O)(=O)NC(=O)c2ccc(N3CCN(Cc4ccccc4-c4ccc(Cl)cc4)CC3)cc2)cc1[N+](=O)[O-] [ABT737]
solubility in organic solvents [1]: showed solubility in organic solvents such as DMSO and Dimethylformamide
solubility in aqueous buffers [1]: minimal
number of circulating platelets (circulating platelets): rapid and concentration-dependent decrease in the number of circulating platelets
oral bioavailability (in words) [2]: not orally bioavailable
plasma clearance [2]: low plasma clearance value
